Assay results as given in PubChem BioAssay (NCI).
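GI50: concentration for 50% inhibition of growth. TGI is the concentration that stops growth completely.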

Tests used:
Assay in all cases: NCI tumour cell line growth inhibition, 384-well format
MOLT-4 leukemia = tested on: MOLT-4 leukemia
A498 renal = tested on: A498 renal
RPMI-8226 leukemia = tested on: RPMI-8226 leukemia
SF-268 CNS = tested on: SF-268 CNS
NCI/ADR-RES ovarian = tested on: NCI/ADR-RES ovarian
MCF7 breast = tested on: MCF7 breast
OVCAR-5 ovarian = tested on: OVCAR-5 ovarian
OVCAR-3 ovarian = tested on: OVCAR-3 ovarian
HOP-62 NSCLC = tested on: HOP-62 NSCLC
UO-31 renal = tested on: UO-31 renal
SNB-19 CNS = tested on: SNB-19 CNS
ACHN renal = tested on: ACHN renal
MDA-MB-435 melanoma = tested on: MDA-MB-435 melanoma
OVCAR-8 ovarian = tested on: OVCAR-8 ovarian
EKVX NSCLC = tested on: EKVX NSCLC
HCC-2998 colon = tested on: HCC-2998 colon
SK-MEL-5 melanoma = tested on: SK-MEL-5 melanoma
MDA-MB-468 breast = tested on: MDA-MB-468 breast
RXF 393 renal = tested on: RXF 393 renal
PC-3 prostate = tested on: PC-3 prostate
HCT-15 colon = tested on: HCT-15 colon
U251 glioblastoma = tested on: U251 glioblastoma
IGROV1 ovarian = tested on: IGROV1 ovarian
SNB-75 CNS = tested on: SNB-75 CNS
DU-145 prostate = tested on: DU-145 prostate
UACC-62 melanoma = tested on: UACC-62 melanoma
HCT-116 colon = tested on: HCT-116 colon
SK-MEL-2 melanoma = tested on: SK-MEL-2 melanoma
OVCAR-4 ovarian = tested on: OVCAR-4 ovarian
NCI-H322M lung = tested on: NCI-H322M lung
NCI-H226 lung = tested on: NCI-H226 lung
BT-549 breast = tested on: BT-549 breast
SK-MEL-28 melanoma = tested on: SK-MEL-28 melanoma
CCRF-CEM leukemia = tested on: CCRF-CEM leukemia
K-562 leukemia = tested on: K-562 leukemia
KM12 colon = tested on: KM12 colon
HS 578T breast = tested on: HS 578T breast
SW-620 colon = tested on: SW-620 colon
NCI-H522 lung = tested on: NCI-H522 lung
UACC-257 melanoma = tested on: UACC-257 melanoma
HL-60(TB) leukemia = tested on: HL-60(TB) leukemia
TK-10 renal = tested on: TK-10 renal
NCI-H23 lung = tested on: NCI-H23 lung
SR leukemia = tested on: SR leukemia
CAKI-1 renal = tested on: CAKI-1 renal
MALME-3M melanoma = tested on: MALME-3M melanoma
HT29 colon = tested on: HT29 colon

In the case of `C[C@@H]1Cc2c(ccc3[nH]ncc23)[C@@H](c2ccc(NC3CN(CCCF)C3)cn2)N1CC(F)(F)F`, the GI50 (MOLT-4 leukemia) is reported as 3.09 µM, the TGI (MOLT-4 leukemia) is reported as 12.8 µM and the GI50 (A498 renal) is reported as 12.5 µM. For the same molecule, the TGI (A498 renal) was 25 µM, the GI50 (RPMI-8226 leukemia) was 6.32 µM and the TGI (RPMI-8226 leukemia) was 19.3 µM. It also gave a GI50 (SF-268 CNS) of 16.5 µM, a TGI (SF-268 CNS) of 30.3 µM and a GI50 (NCI/ADR-RES ovarian) of 23.5 µM. The TGI (NCI/ADR-RES ovarian) was 62.6 µM, the GI50 (MCF7 breast) was under 0.01 µM and the TGI (MCF7 breast) was 13.5 µM. It also gave a GI50 (OVCAR-5 ovarian) of 16 µM, a TGI (OVCAR-5 ovarian) of 30.7 µM and a GI50 (OVCAR-3 ovarian) of 14.5 µM. It also gave a TGI (OVCAR-3 ovarian) of 27.7 µM, a GI50 (HOP-62 NSCLC) of 17.6 µM and a TGI (HOP-62 NSCLC) of 31.4 µM. For the same molecule, the GI50 (UO-31 renal) was 17.6 µM, the TGI (UO-31 renal) was 31.5 µM and the GI50 (SNB-19 CNS) was 23.1 µM. It also gave a TGI (SNB-19 CNS) of 49.8 µM, a GI50 (ACHN renal) of 17.5 µM and a TGI (ACHN renal) of 31.5 µM. It also gave a GI50 (MDA-MB-435 melanoma) of 16.8 µM, a TGI (MDA-MB-435 melanoma) of 30.6 µM and a GI50 (OVCAR-8 ovarian) of 15.4 µM. It also gave a TGI (OVCAR-8 ovarian) of 28.9 µM, a GI50 (EKVX NSCLC) of 13.8 µM and a TGI (EKVX NSCLC) of 27.7 µM. For the same molecule, the GI50 (HCC-2998 colon) was 13.8 µM, the TGI (HCC-2998 colon) was 26.8 µM and the GI50 (SK-MEL-5 melanoma) was 14.8 µM. It also gave a TGI (SK-MEL-5 melanoma) of 28 µM, a GI50 (MDA-MB-468 breast) of 7.75 µM and a TGI (MDA-MB-468 breast) of 20.1 µM. The GI50 (RXF 393 renal) was 4.54 µM, the TGI (RXF 393 renal) was 16.1 µM and the GI50 (PC-3 prostate) was 14.9 µM. The TGI (PC-3 prostate) was 28.6 µM, the GI50 (HCT-15 colon) was 16.4 µM and the TGI (HCT-15 colon) was 30.3 µM. The GI50 (U251 glioblastoma) was 15 µM, the TGI (U251 glioblastoma) was 28.4 µM and the GI50 (IGROV1 ovarian) was 14.8 µM. It also gave a TGI (IGROV1 ovarian) of 30.1 µM, a GI50 (SNB-75 CNS) of 17.6 µM and a TGI (SNB-75 CNS) of 31.4 µM. For the same molecule, the GI50 (DU-145 prostate) was 18.5 µM, the TGI (DU-145 prostate) was 37.7 µM and the GI50 (UACC-62 melanoma) was 13.8 µM. It also gave a TGI (UACC-62 melanoma) of 26.8 µM, a GI50 (HCT-116 colon) of 13.3 µM and a TGI (HCT-116 colon) of 26.2 µM. For the same molecule, the GI50 (SK-MEL-2 melanoma) was 15.8 µM, the TGI (SK-MEL-2 melanoma) was 29.2 µM and the GI50 (OVCAR-4 ovarian) was 19.3 µM. The TGI (OVCAR-4 ovarian) was 35.7 µM, the GI50 (NCI-H322M lung) was 16.4 µM and the TGI (NCI-H322M lung) was 30.9 µM. It also gave a GI50 (NCI-H226 lung) of 17.4 µM, a TGI (NCI-H226 lung) of 53.3 µM and a GI50 (BT-549 breast) of 13.1 µM. For the same molecule, the TGI (BT-549 breast) was 25.9 µM, the GI50 (SK-MEL-28 melanoma) was 16.1 µM and the TGI (SK-MEL-28 melanoma) was 29.7 µM. For the same molecule, the GI50 (CCRF-CEM leukemia) was 5.58 µM, the TGI (CCRF-CEM leukemia) was 17.4 µM and the GI50 (K-562 leukemia) was 14.2 µM. It also gave a TGI (K-562 leukemia) of 27.5 µM, a GI50 (KM12 colon) of 15.8 µM and a TGI (KM12 colon) of 29.8 µM. For the same molecule, the GI50 (HS 578T breast) was 13 µM, the TGI (HS 578T breast) was 25.7 µM and the GI50 (SW-620 colon) was 16.6 µM. The TGI (SW-620 colon) was 30.4 µM, the GI50 (NCI-H522 lung) was 11.9 µM and the TGI (NCI-H522 lung) was 24.3 µM. The GI50 (UACC-257 melanoma) was 13.9 µM, the TGI (UACC-257 melanoma) was 26.9 µM and the GI50 (HL-60(TB) leukemia) was 13.5 µM. The TGI (HL-60(TB) leukemia) was 26.4 µM, the GI50 (TK-10 renal) was 16.6 µM and the TGI (TK-10 renal) was 30.5 µM. It also gave a GI50 (NCI-H23 lung) of 11.7 µM, a TGI (NCI-H23 lung) of 24.3 µM and a GI50 (SR leukemia) of 2.18 µM. It also gave a TGI (SR leukemia) of 4.92 µM, a GI50 (CAKI-1 renal) of 13.7 µM and a TGI (CAKI-1 renal) of 26.7 µM. It also gave a GI50 (MALME-3M melanoma) of 13.8 µM, a TGI (MALME-3M melanoma) of 26.7 µM and a GI50 (HT29 colon) of 14.6 µM. It also gave a TGI (HT29 colon) of 27.9 µM.
